Measured values reported in ChEMBL document CHEMBL1143067, “Novel nitrogen mustard-armed combi-molecules for the selective targeting of epidermal growth factor receptor overexperessing solid tumors: discovery of an unusual structure-activity relationship” (J Med Chem, 2007).
Calls of active or inactive are those of the source. The calls are words filed in the database; no cut-off is given here.

Legend:
DU-145 [1] = experiment: Growth inhibition of human DU145 cells after 3 days by SRB assay
NIH3T3 [2] = experiment: Inhibition of serum-stimulated growth of NIH3T3 cells transfected with HER14 after 3 days by SRB assay
NIH3T3 [3] = experiment: Inhibition of serum-stimulated growth of NIH3T3 cells after 3 days by SRB assay
[4] = target: Epidermal growth factor receptor (Homo sapiens, UniProt P00533); experiment: Inhibition of EGFR tyrosine kinase expressed in A431 cells
DU-145 [5] = experiment: Induction of cell cycle arrest in human DU145 cells assessed as accumulation at mid-S phase at 10 uM after 24 hrs by flow cytometry; assay type: functional, cell-based
DU-145 [6] = experiment: Induction of cell cycle arrest in human DU145 cells assessed as accumulation at G1 phase at 10 uM after 24 hrs by flow cytometry; assay type: functional, cell-based
DU-145 [7] = experiment: Induction of DNA interstand cross links in human DU145 cells assessed as decrease in comet tail moment after irradiation by single cell gel electrophoresis assay; assay type: functional, cell-based

Chain of Epidermal growth factor receptor (P00533 whole entry): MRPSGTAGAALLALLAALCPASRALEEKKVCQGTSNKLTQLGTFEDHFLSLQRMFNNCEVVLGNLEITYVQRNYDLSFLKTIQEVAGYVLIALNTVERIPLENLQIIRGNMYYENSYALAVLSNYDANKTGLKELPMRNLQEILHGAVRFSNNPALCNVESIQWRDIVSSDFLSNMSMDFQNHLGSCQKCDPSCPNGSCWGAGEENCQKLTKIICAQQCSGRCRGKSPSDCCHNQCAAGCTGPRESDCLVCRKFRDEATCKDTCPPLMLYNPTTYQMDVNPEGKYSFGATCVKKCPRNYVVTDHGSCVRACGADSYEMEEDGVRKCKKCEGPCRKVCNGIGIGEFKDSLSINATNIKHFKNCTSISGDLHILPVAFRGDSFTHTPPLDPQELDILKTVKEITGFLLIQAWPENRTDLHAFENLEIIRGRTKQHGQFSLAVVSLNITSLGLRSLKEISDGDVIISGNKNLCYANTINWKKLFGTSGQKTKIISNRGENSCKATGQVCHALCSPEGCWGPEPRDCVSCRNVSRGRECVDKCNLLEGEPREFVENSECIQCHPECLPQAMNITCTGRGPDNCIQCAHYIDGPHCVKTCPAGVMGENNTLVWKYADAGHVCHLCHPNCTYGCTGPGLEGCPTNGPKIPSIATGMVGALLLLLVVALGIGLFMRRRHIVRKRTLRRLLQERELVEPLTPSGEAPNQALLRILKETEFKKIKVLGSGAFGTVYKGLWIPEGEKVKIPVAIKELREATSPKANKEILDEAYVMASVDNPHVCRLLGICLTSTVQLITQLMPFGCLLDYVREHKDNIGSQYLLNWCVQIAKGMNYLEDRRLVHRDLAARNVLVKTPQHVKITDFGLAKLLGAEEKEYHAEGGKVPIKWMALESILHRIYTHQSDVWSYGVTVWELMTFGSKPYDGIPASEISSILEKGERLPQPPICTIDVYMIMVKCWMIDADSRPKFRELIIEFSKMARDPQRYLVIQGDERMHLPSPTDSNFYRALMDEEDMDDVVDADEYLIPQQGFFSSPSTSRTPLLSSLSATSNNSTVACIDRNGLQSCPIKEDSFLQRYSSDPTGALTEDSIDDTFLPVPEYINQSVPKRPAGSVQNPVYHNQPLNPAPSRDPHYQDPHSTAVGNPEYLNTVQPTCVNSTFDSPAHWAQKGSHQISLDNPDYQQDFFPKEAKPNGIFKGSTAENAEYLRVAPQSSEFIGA

Row | Structure (SMILES) | IC50 (DU-145 [1]; du-145) | IC50 (NIH3T3 [2]; nih3t3) | IC50 (NIH3T3 [3]; nih3t3) | IC50 [4] | Activity (DU-145 [5]) | Activity (DU-145 [6]) | IC50 (DU-145 [1]; Homo sapiens, DU-145, 72 h) | Activity (DU-145 [7]) | IC50 (NIH3T3 [2]; Mus musculus, NIH3T3, 72 h) | IC50 (NIH3T3 [3]; Mus musculus, NIH3T3, 72 h)
1 | Nc1ccc2ncnc(Nc3cccc(Cl)c3)c2c1 | 34.1 µM | 3.19 µM | 38.4 µM |  |  |  |  |  |  | 
2 | CN(CCCl)CCN/N=N/c1ccc2ncnc(Nc3cccc(Cl)c3)c2c1 |  |  |  | 4.4 nM | Active | Active | 2.6 µM | Dose-dependent effect | 1.31 µM | 27.2 µM
3 | ClCCN(CCNN=Nc1ccc2ncnc(Nc3cccc(Cl)c3)c2c1)c1ccc(Cl)cc1 |  |  |  | 2200 nM |  |  | 4.7 µM |  | 12 µM | 27.6 µM
4 | ClCCN(CCNN=Nc1ccc2ncnc(Nc3cccc(Cl)c3)c2c1)Cc1ccccc1 |  |  |  | 71 nM |  |  | 10.6 µM |  | 2.93 µM | 15.2 µM
5 | COc1ccc(N(CCCl)CCN/N=N/c2ccc3ncnc(Nc4cccc(Cl)c4)c3c2)cc1 |  |  |  | 3960 nM |  |  | 7.95 µM |  | 6.22 µM | 9.07 µM
6 | CN(C)CCN/N=N/c1ccc2ncnc(Nc3cccc(Cl)c3)c2c1 |  |  |  | 37 nM |  |  | 37.2 µM |  | 1.67 µM | 39.5 µM
7 | COc1ccc(N(CCN=NNc2ccc3ncnc(Nc4cccc(Cl)c4)c3c2)CC(C)Cl)cc1 (stereo not given) |  |  |  | 970 nM |  |  | 11.4 µM |  | 5.75 µM | 21.5 µM
